# Literature values as cited in PubChem BioAssay AID1259409 (Chemical Carcinogenesis Research Information System (CCRIS), 2018).
# System: rodent chemically induced tumor inhibition, incidence and multiplicity
# Assay: CCRIS tumor inhibitor studies
# Settings: Dose [Inhibitor]: 0, Species: RAT, Promoter: NONE USED
smiles,measurement,setting,value
CO[C@@H]1[C@H](OC(=O)NC(=O)CCl)CC[C@]2(CO2)[C@H]1[C@@]1(C)O[C@@H]1CC=C(C)C,"tumour outcome (control, treated, inhibition, significance)","Carcinogen: N-METHYL-N-NITROSOUREA, 684-93-5, 1 UG/ML IN URINE 1/WK FOR 10 WK INSTILLED INTO HETEROTROPICALLY TRANSPLANTED BLADDER BEGINNING 21 WK POST CARCINOGEN, Route [Inhibitor]: INTRAVESICULAR, Strain/Sex: F344/MALE, Target Tissue: Type of Lesion: BLADDER: TUMOR, Dose [Carcinogen]: 0.25 MG IN 0.5 ML OF 0.9% SALINE INSTILLED INTO HETEROTROPICALLY TRANSPLANTED BLADDER ONCE","24/38 (63%), 9/24 (38%), 40%, p=0.08"
same,"tumour outcome (control, treated, inhibition, significance)","Carcinogen: N-METHYL-N-NITROSOUREA, 684-93-5, 1 UG/ML IN URINE 1/WK FOR 27 WK INSTILLED INTO HETEROTROPICALLY TRANSPLANTED BLADDER BEGINNING 4 WK POST CARCINOGEN D, Route [Inhibitor]: INTRAVESICULAR, Strain/Sex: F344/MALE, Target Tissue: Type of Lesion: BLADDER: TUMOR, Dose [Carcinogen]: 0.25 MG IN 0.5 ML OF 0.9% SALINE INSTILLED INTO HETEROTROPICALLY TRANSPLANTED BLADDER ONCE","24/38 (63%), 14/37 (38%), 40%, p<0.05"
CCCCCCCc1c(O)cc(CC=C(C)C)c(O)c1C=O,"tumour outcome (control, treated, inhibition, significance)","Carcinogen: AZOXYMETHANE, 25843-45-2, 0.02% IN DIET IN WK 1-3 OF STUDY FOLLOWED BY BASAL DIET FOR DURATION OF STUDY (STUDY DURATION: 1 YR), Route [Inhibitor]: ORAL, Strain/Sex: F344/MALE, Target Tissue: Type of Lesion: LARGE INTESTINE: ADENOCARCINOMA, Dose [Carcinogen]: 15 MG/KG BW 1/WK IN WK 1 AND 2 OF STUDY","13/27 (48%), 6/30 (20%), 58%, not significant"
same,"tumour outcome (control, treated, inhibition, significance)","Carcinogen: AZOXYMETHANE, 25843-45-2, 0.02% IN DIET IN WK 1-3 OF STUDY FOLLOWED BY BASAL DIET FOR DURATION OF STUDY (STUDY DURATION: 1 YR), Route [Inhibitor]: ORAL, Strain/Sex: F344/MALE, Target Tissue: Type of Lesion: LARGE INTESTINE: ADENOMA, Dose [Carcinogen]: 15 MG/KG BW 1/WK IN WK 1 AND 2 OF STUDY","6/27 (22%), 4/30 (13%), 41%, not significant"
same,"tumour outcome (control, treated, inhibition, significance)","Carcinogen: AZOXYMETHANE, 25843-45-2, 0.02% IN DIET IN WK 1-3 OF STUDY FOLLOWED BY BASAL DIET FOR DURATION OF STUDY (STUDY DURATION: 1 YR), Route [Inhibitor]: ORAL, Strain/Sex: F344/MALE, Target Tissue: Type of Lesion: SMALL INTESTINE: ADENOCARCINOMA, Dose [Carcinogen]: 15 MG/KG BW 1/WK IN WK 1 AND 2 OF STUDY","6/27 (22%), 5/30 (17%), 23%, not significant"
COc1ccc2cc(CCC(C)=O)ccc2c1,"tumour outcome (control, treated, inhibition, significance)","Carcinogen: N-METHYL-N-NITROSOUREA, 684-93-5, 0.03% IN DIET FOR 24 WK BEGINNING 1 WK POST CARCINOGEN DOSE (STUDY DURATION: 25 WK), Route [Inhibitor]: ORAL, Strain/Sex: SPRAGUE-DAWLEY/FEMALE, Target Tissue: Type of Lesion: MAMMARY GLAND: TUMOR, Dose [Carcinogen]: 50 MG/KG ONCE","24/30 (80%), 13/31 (42%), 48%, p<0.005"
